Source: article PMC7125202, “Targeting of radioactive platinum-bisphosphonate anticancer drugs to bone of high metabolic activity” (Scientific Reports, 2020)
Entries after “also recorded” stand apart in the source; their conditions may differ.

How the values were obtained:
[1] = In vivo biodistribution of cold Pt-species, Pt quantified by ICP-MS; set-up: species or system C57Bl/6N mice; details: 24 h after i.v. injection
Method: The Pt-BP and Pt(NO3)2(en) complexes were administered intravenously in the tail vein of C57BL/6N mice (n = 5 per each platinum complex). Sterile saline solution (0.9% NaCl) was used to dissolve platinum complexes. The concentration of injected Pt-BP or Pt(NO3)2(en) solutions was 2.5 mM platinum, calculated based on the maximum tolerated dose for cisplatin of 6 mg per kg body weight of the mice[37]. The mice were euthanized with CO2 24 h after injection, after which blood (approximately 600 mg per mouse), liver, spleen, kidneys, heart, lungs, and bones (femur, humerus, tibia, and spine) were harvested. Approximately half of the tissues were prepared for inductively coupled plasma-mass spectrometry (ICP-MS) analysis by digestion in 65% (v/v) nitric acid at 75 °C for approximately three days until the tissues were digested completely. Each tissue was cut into three samples and the samples were weighed prior to digestion in nitric acid. The digested solutions were diluted with up to 6 ml of Milli-Q water to obtain 2% (v/v) nitric acid in order to measure platinum concentrations by ICP-MS (X series I, Thermo Electron Corporation). The detection limit for determining platinum concentration with ICP-MS was 1 ppb. The standard solutions were prepared from 1000 mg·1^−1 platinum ICP standard Certipur (1.70341.0100, Merck) ranging from 1 ppb to 2500 ppb. The measured isotopes for platinum were ^194Pt, ^195Pt, ^196Pt, and ^198Pt. Furthermore, scandium (^45Sc) was added as an internal standard, which was prepared with 1000 mg·1^−1 scandium standard Certipur (1.19513.0100, Merck) to correct for matrix effects and long-term fluctuations of the measurement signal. The platinum concentrations in the various tissues were calculated relative to 1 mg of the specific tissue and represented as ng Pt/mgtissue. Three replicates of Pt-BP and Pt(NO3)2(en) solutions with volumes and platinum concentrations identical to the solutions injected to the mice (200 µl and 2.5 mM platinum, respectively) were also analyzed for their platinum content using ICP-MS as control. The percentage of injected dose (%ID) of Pt-BP and Pt(NO3)2(en) in each mouse tissue 24 h after injection was calculated by dividing the total amount of platinum per tissue through the total amount of platinum detected in the control solutions[52].

[2] = test system: zebrafish embryos; assay: Phenotypic assessment of drug-treated zebrafish embryos; assay type: in vivo, zebrafish (Danio rerio); details: up to a concentration of 100 µM, until 2 days post treatment
Method: The zebrafish (Danio rerio) strains were kept under standard conditions (28 °C in E3 buffer) until 48 hours post fertilization (hpf) as described previously. All animal experiments were conducted at larval stages before the point of independent feeding and were in agreement with the animal protection law (Tierschutzgesetz).
48 hpf wildtype embryos were separated into 6 groups (n = 20 embryos/group), i.e., control (untreated) and embryos treated with 5 µM, 10 µM, 50 µM, and 100 µM Pt-BP as well as 30 µM cisplatin. Both types of compounds were added externally to the medium and the embryos were incubated at 33 °C for the duration of the experiment. The embryos were assessed each day for phenotypic toxicity until 2 days post treatment (48 hpt) and imaged live in an Olympus MVX10 microscope.

[3] = test system: lateral line neuromast hair cells; assay: Ototoxicity assay, DASPEI staining; assay type: in vivo, zebrafish (Danio rerio); details: 48 h post treatment, 5, 10 and 50 µM
Method: The lateral line neuromast hair cells in embryos were stained with a vital dye to analyse the loss of hair cells after Pt-BP treatment. Cisplatin was used as a control, as it was known to affect hair cells in humans. The fluorescent dye 2-[4-(dimethylamino)styryl]-N-ethylpyridinium iodide (DASPEI) [Molecular Probes, Eugene, OR] was used to stain hair cells in the neuromast as described previously. Larvae were incubated in embryo medium containing 0.005% DASPEI for 15 min, anesthetized in Tricaine MS222 (10 µg/ml) for 5 min, rinsed once in fresh embryo medium, and imaged using Vertebrate automated screening technology (VAST, Union Biometrica), combined with high-speed and super-resolution Zeiss cell observer spinning disk confocal system. The quantification of number of neuromast hair cells in the treated embryos was done manually with confocal microscopy (Zeiss LSM780).

[4] = test system: genomic DNA; assay: Pt-DNA adducts quantification using High Resolution ICP-MS; assay type: in vivo, C57Bl/6N mice; details: 24 h after i.v. injection
Text: The remaining half of the tissues from all mice were dissected and weighed for DNA extraction. DNA was isolated using DNeasy Blood & Tissue Kit (Qiagen, USA) for soft tissue and ChargeSwitch® gDNA Plant Kit (Thermofisher, USA) for bone samples. The DNA was digested with DNase I Solution (Thermofisher, USA) and filtered using 0.2 µm acrodisc GHP before analysis for Pt content using high resolution-ICP-MS (Element2, Thermo Finnigan). The detection limit for determining the platinum concentration was 2 ng/l. The standard solutions were prepared from 1000 mg·1^−1 platinum ICP standard Certipur (1.70341.0100, Merck) ranging from 5 ppt to 10 ppb. The selected isotopes for platinum were ^194Pt and ^195Pt. Furthermore, thallium (Tl) was added as an internal standard and determined at a molecular mass of 205 Da, which was prepared using a 1000 mg·1^−1 thallium standard (CGTL-1, Inorganic Ventures) to correct for matrix effects and long-term fluctuations of the analytical signal. The Pt-DNA adduct concentration is represented as percentage of Pt involved in adduct formation to the total amount of Pt accumulated in the specific tissue.

[5] = cited from earlier work

Question: Which results are given for `NCCN.NCCN.O.O.O.O=S(=O)([O-])O.[NH3+]CC1(O)P2(=O)[O][Pt][O]P1(=O)[O][Pt][O]2` (stereo not shown) [Pt-BP, dinuclear bis<ethylenediamineplatinum(II) > -2-amino-1-hydroxyethane-1,1-diyl-bisphosphonate complex]?
Answer: higher affinity for bone compared to Pt(NO3)2(en) [1]: 4.5 fold; Pt uptake in hard tissue ([1]; 2.5 mM Pt): 12.18 ± 0.56 %ID/g; Pt uptake in kidney ([1]; 2.5 mM Pt): 5.70 ± 0.15 %ID/g; Pt uptake in liver ([1]; 2.5 mM Pt): 2.34 ± 0.17 %ID/g; Pt uptake in spleen ([1]; 2.5 mM Pt): 1.22 ± 0.12 %ID/g; Pt accumulation in hard tissue (bone) ([1]; 2.5 mM Pt, normalized for tissue weight): ~ 3 ng Pt/mg tissue; visible phenotypic effects [2]: did not show any phenotypic abnormality; also recorded: no visible phenotypic effects; ototoxic effect (lateral line neuromast hair cell quantification) [3]: dose-dependent ototoxic effect; Pt-DNA adduct formation relative to total Pt uptake, all tissues except kidney and spleen [4]: < 0.5%; Pt-DNA adduct formation relative to total Pt uptake, kidney [4]: 2.8%; Pt-DNA adduct formation relative to total Pt uptake, spleen [4]: 1.4%; stability in neutral aqueous solution ([5]; pH 7.0, room temperature): stable in neutral aqueous solution (pH 7.0, room temperature) for several months; stability in water at pH > 8.0 ([5]; pH > 8.0): rearranges rather than decomposes
